According to publication PMC9866191, “Novel 9-Benzylaminoacridine Derivatives as Dual Inhibitors of Phosphodiesterase 5 and Topoisomerase II for the Treatment of Colon Cancer” (Molecules, 2023):

What was measured:
PDE5A = biological target: T1, PDE5A (Homo sapiens, UniProt O76074); assay: Phosphodiesterase 5 HTRF cGMP assay; assay type: biochemical; details: for IC50: means ± S.D. (n = 4), read-out: PDE5 IC50; for inhibition at 10 µM: read-out: PDE5 % Inhibition at 10 μM
T1 construct: purchased BPS Bioscience, San Diego, CA, USA
Procedure: All the synthesized acridine derivatives were tested for their in vitro ability to inhibit PDE5A at a screening dose of 10 µM.
The enzyme activities of phosphodiesterase 5 (PDE5) were measured using an HTRF cGMP assay kit (Cisbio, Codolet, France). […] Afterward, the HTRF reagent (cGMP-d2 and anti-cGMP-cryptate) was added for 1 h at 25 °C, and PDE activity was assayed on an HTRF reader (Tecan Infinite F200 Pro).

786-0 = assay: NCI-60 one-dose screen; assay type: cell-based; details: Homo sapiens; 786-0, Renal Cancer panel; single dose 10^−5 M; read-out: Growth inhibition %
Procedure: (§1) The newly synthesized compounds were screened for their in vitro anticancer activity at the Developmental Therapeutic Program (DTP) of the National Cancer Institute (NCI). The screening involved a panel of 60 human tumor cell lines consisting of 9 tissue types to screen for potential anti-cancer agents. The primary screening of submitted compounds was performed by testing a single dose (10^−5 M) in the full NCI-60 panel. The detailed % inhibition by the tested compounds against the 60 cell lines is shown in Tables S1–S3 in the Supporting Information.

ACHN = assay: NCI-60 one-dose screen; assay type: cell-based; details: Homo sapiens, Renal Cancer panel, single dose 10^−5 M, read-out: Growth inhibition %
Procedure: as §1

BT-549 = assay: NCI-60 one-dose screen; assay type: cell-based; details: Homo sapiens; BT-549, Breast Cancer panel; single dose 10^−5 M; read-out: Growth inhibition %
Procedure: as §1

CAKI-1 = assay: NCI-60 one-dose screen; assay type: cell-based; details: Homo sapiens; CAKI-1, Renal Cancer panel; single dose 10^−5 M; read-out: Growth inhibition %
Procedure: as §1

COLO 205 = assay: NCI-60 one-dose screen; assay type: cell-based; details: Homo sapiens; COLO 205, Colon Cancer panel; single dose 10^−5 M; read-out: Growth inhibition %
Procedure: as §1

DU-145 = assay: NCI-60 one-dose screen; assay type: cell-based; details: Homo sapiens; DU-145, Prostate Cancer panel; single dose 10^−5 M; read-out: Growth inhibition %
Procedure: as §1

EKVX = assay: NCI-60 one-dose screen; assay type: cell-based; details: Homo sapiens, Non-small cell lung panel, single dose 10^−5 M, read-out: Growth inhibition %
Procedure: as §1

HCT-15 = assay: NCI-60 one-dose screen; assay type: cell-based; details: Homo sapiens; HCT-15, Colon Cancer panel; single dose 10^−5 M; read-out: Growth inhibition %
Procedure: as §1

HL-60(TB) = assay: NCI-60 one-dose screen; assay type: cell-based; details: Homo sapiens, Leukemia panel, single dose 10^−5 M, read-out: Growth inhibition %
Procedure: as §1

HS 578T = assay: NCI-60 one-dose screen; assay type: cell-based; details: Homo sapiens, Breast Cancer panel, single dose 10^−5 M, read-out: Growth inhibition %
Procedure: as §1

HT29 = assay: NCI-60 one-dose screen; assay type: cell-based; details: Homo sapiens, HT-29; HT29, Colon Cancer panel; single dose 10^−5 M; read-out: Growth inhibition %
Procedure: as §1

K-562 = assay: NCI-60 one-dose screen; assay type: cell-based; details: Homo sapiens, K562; K-562, Leukemia panel; single dose 10^−5 M; read-out: Growth inhibition %
Procedure: as §1

KM12 = assay: NCI-60 one-dose screen; assay type: cell-based; details: Homo sapiens; KM12, Colon Cancer panel; single dose 10^−5 M; read-out: Growth inhibition %
Procedure: as §1

MDA-MB-231/ATCC = assay: NCI-60 one-dose screen; assay type: cell-based; details: Homo sapiens, Breast Cancer panel, single dose 10^−5 M, read-out: Growth inhibition %
Procedure: as §1

MDA-MB-435 = assay: NCI-60 one-dose screen; assay type: cell-based; details: Homo sapiens; MDA-MB-435, Melanoma panel; single dose 10^−5 M; read-out: Growth inhibition %
Procedure: as §1

MOLT-4 = assay: NCI-60 one-dose screen; assay type: cell-based; details: Homo sapiens; MOLT-4, Leukemia panel; single dose 10^−5 M; read-out: Growth inhibition %
Procedure: as §1

NCI-H226 = assay: NCI-60 one-dose screen; assay type: cell-based; details: Homo sapiens; NCI-H226, Non-small cell lung panel; single dose 10^−5 M; read-out: Growth inhibition %
Procedure: as §1

OVCAR-3 = assay: NCI-60 one-dose screen; assay type: cell-based; details: Homo sapiens; OVCAR-3, Ovarian Cancer panel; single dose 10^−5 M; read-out: Growth inhibition %
Procedure: as §1

OVCAR-8 = assay: NCI-60 one-dose screen; assay type: cell-based; details: Homo sapiens; OVCAR-8, Ovarian Cancer panel; single dose 10^−5 M; read-out: Growth inhibition %
Procedure: as §1

SK-MEL-28 = assay: NCI-60 one-dose screen; assay type: cell-based; details: Homo sapiens; SK-MEL-28, Melanoma panel; single dose 10^−5 M; read-out: Growth inhibition %
Procedure: as §1

SK-MEL-5 = assay: NCI-60 one-dose screen; assay type: cell-based; details: Homo sapiens; SK-MEL-5, Melanoma panel; single dose 10^−5 M; read-out: Growth inhibition %
Procedure: as §1

SNB-75 = assay: NCI-60 one-dose screen; assay type: cell-based; details: Homo sapiens; SNB-75, CNS Cancer panel; single dose 10^−5 M; read-out: Growth inhibition %
Procedure: as §1

SR = assay: NCI-60 one-dose screen; assay type: cell-based; details: Homo sapiens, Leukemia panel, single dose 10^−5 M, read-out: Growth inhibition %
Procedure: as §1

SW-620 = assay: NCI-60 one-dose screen; assay type: cell-based; details: Homo sapiens; SW-620, Colon Cancer panel; single dose 10^−5 M; read-out: Growth inhibition %
Procedure: as §1

UO-31 = assay: NCI-60 one-dose screen; assay type: cell-based; details: Homo sapiens; UO-31, Renal Cancer panel; single dose 10^−5 M; read-out: Growth inhibition %
Procedure: as §1

SF-268 = assay: NCI-60 one-dose screen; assay type: cell-based; details: Homo sapiens; SF-268, CNS Cancer panel; single dose 10^−5 M; read-out: Growth inhibition %
HCT-116 = assay: MTT cell proliferation assay, HCT-116; details: for % Inhibition at 10 µM: 72 h MTT, means ± SD; for IC50: read-out: IC50 μM, 72 h MTT, means ± SD, three experiments
Procedure: (§2) In the MTT assay, 96-well culture plates were used. A total of 7 × 10^4 cells per well were seeded, and test materials were added to the cells at various concentrations [47, 48]. Human cancer and non-cancer cell lines were purchased commercially from the American Type Culture Collection (ATCC). After 72 h, the cytotoxicity of the compounds and paclitaxel (as a positive control group) was detected using the MTT method (thiazolyl blue tetrazolium bromide, Sigma-M2128). Absorbance values at 570 and 620 nm (OD = OD570–OD620) were measured using an ELISA reader (Anthos Labtec Instruments, Salzburg, Austria).

CCD-966SK = assay: MTT cell proliferation assay, CCD-966SK; details: CCD966SK skin fibroblast, 72 h MTT
Procedure: as §2

Compound	IC50 (PDE5A) [µM]	inhibition at 10 µM (PDE5A) [%]	inhibition at 10 µM (786-0) [%]	inhibition at 10 µM (ACHN) [%]	inhibition at 10 µM (BT-549) [%]	inhibition at 10 µM (CAKI-1) [%]	inhibition at 10 µM (COLO 205) [%]	inhibition at 10 µM (DU-145) [%]	inhibition at 10 µM (EKVX) [%]	inhibition at 10 µM (HCT-15) [%]	inhibition at 10 µM (HL-60(TB)) [%]	inhibition at 10 µM (HS 578T) [%]	inhibition at 10 µM (HT29) [%]	inhibition at 10 µM (K-562) [%]	inhibition at 10 µM (KM12) [%]	inhibition at 10 µM (MDA-MB-231/ATCC) [%]	inhibition at 10 µM (MDA-MB-435) [%]	inhibition at 10 µM (MOLT-4) [%]	inhibition at 10 µM (NCI-H226) [%]	inhibition at 10 µM (OVCAR-3) [%]	further results
c1ccc(CNc2c3ccccc3nc3ccccc23)cc1 [Compound 1, Acridin-9-yl-benzyl-amine]	9.33 ± 4.62	52.2 ± 5.87	65.7	81.9	27.2	66.9	92.7	51.4	51.9	75.4	56.2	43.9	81	87.7	69.5	42.1	57.2	84.5	48.3	48.3	inhibition at 10 µM (OVCAR-8): 73.9%; inhibition at 10 µM (SK-MEL-28): 14.5%; inhibition at 10 µM (SK-MEL-5): 36.9%; inhibition at 10 µM (SNB-75): 35.6%; inhibition at 10 µM (SR): 88.3%; inhibition at 10 µM (SW-620): 75.5%; inhibition at 10 µM (UO-31): 76.2%; inhibition at 10 µM (SF-268): 37.4%; % Inhibition at 10 µM (HCT-116): 67.16 ± 2.40%; IC50 (HCT-116): 2.81 ± 0.2 µM; % Inhibition at 10 µM (CCD-966SK): 47.97 ± 1.96%
Cc1ccccc1CNc1c2ccccc2nc2ccccc12 [Compound 2, Acridin-9-yl-(2-methylbenzyl)-amine]	9.87 ± 2.06	50.4 ± 3.68	75.7	88.4	44.1	74.9	119	69.4	61.6	85.4	84.7	64.3	91.1	95	83.1	60.1	76.1	91.2	68.5	68.7	inhibition at 10 µM (OVCAR-8): 79%; inhibition at 10 µM (SK-MEL-28): 41.7%; inhibition at 10 µM (SK-MEL-5): 66.1%; inhibition at 10 µM (SNB-75): 54.7%; inhibition at 10 µM (SR): 97.3%; inhibition at 10 µM (SW-620): 86.2%; inhibition at 10 µM (UO-31): 84.5%; inhibition at 10 µM (SF-268): 57.1%; % Inhibition at 10 µM (HCT-116): 66.96 ± 0.14%; IC50 (HCT-116): 4.01 ± 0.17 µM; % Inhibition at 10 µM (CCD-966SK): 59.74 ± 0.55%; IC50 (CCD-966SK; read-out: IC50 μM): 4.18 ± 0.36 µM
COc1ccc(CNc2c3ccccc3nc3ccccc23)cc1F [Compound 19, Acridin-9-yl-(3-fluoro-4-methoxybenzyl)-amine]	3.39 ± 1.03	79.2 ± 8.48	74	89.1	50.5	78.7	91.3	72.8	73.9	89	87.1	54.5	87.8	95.2	67.2	70.8	92.4	91.1	57	47.8	inhibition at 10 µM (OVCAR-8): 70.6%; inhibition at 10 µM (SK-MEL-28): 53.3%; inhibition at 10 µM (SK-MEL-5): 63.5%; inhibition at 10 µM (SNB-75): 57.5%; inhibition at 10 µM (SR): 95.2%; inhibition at 10 µM (SW-620): 83.4%; inhibition at 10 µM (UO-31): 86.5%; inhibition at 10 µM (SF-268): 50.9%; % Inhibition at 10 µM (CCD-966SK): 41.77 ± 0.99%
COc1ccc(CNc2c3ccccc3nc3ccc(OC)cc23)cc1 [Compound 27, (2-Methoxyacridin-9-yl)-(4-methoxybenzyl)-amine]	1.87 ± 1.03	88.8 ± 4.84	85	89.8	57	80.1	151	80	75.8	94.7	121	74.1	103	99.7	72.4	76.4	81	100	66.2	59.6	inhibition at 10 µM (OVCAR-8): 74.6%; inhibition at 10 µM (SK-MEL-28): 58.7%; inhibition at 10 µM (SK-MEL-5): 88.9%; inhibition at 10 µM (SNB-75): 72.6%; inhibition at 10 µM (SR): 116%; inhibition at 10 µM (SW-620): 84.2%; inhibition at 10 µM (UO-31): 93.8%; inhibition at 10 µM (SF-268): 59.8%; % Inhibition at 10 µM (CCD-966SK): 19.04 ± 3.94%
